# Target: hMC4R (Homo sapiens (Human), UniProt P32245)
# Experiment: LANCE cAMP assay, hMC4R PAM
# Assay type: cell-based
# Settings: HEK293 cells stably expressing the hMC4R; α-MSH at an EC20 dose
# Method: Analysis of pharmacological properties of compounds was performed using the LANCE cAMP kit (Perkin Elmer). HEK293 cells stably expressing the hMC4R were treated with PAM compounds at doses indicated, then incubated with an Alexa Fluor 647-labeled antibody in stimulation buffer according to manufacturer's instructions for 30 min at RT. Next, α-MSH was added (at an EC20 dose or at doses indicated for concentration-response curves), and plates were incubated for 15 minutes at RT, followed by the addition of 10 μL of detection mix. Plates were then incubated for 30 minutes at RT and read on a Viewlux (Perkin Elmer) using 618 and 671 nm emission filters. IBMX was not included in the assay.
# Chain of hMC4R (P32245 whole entry): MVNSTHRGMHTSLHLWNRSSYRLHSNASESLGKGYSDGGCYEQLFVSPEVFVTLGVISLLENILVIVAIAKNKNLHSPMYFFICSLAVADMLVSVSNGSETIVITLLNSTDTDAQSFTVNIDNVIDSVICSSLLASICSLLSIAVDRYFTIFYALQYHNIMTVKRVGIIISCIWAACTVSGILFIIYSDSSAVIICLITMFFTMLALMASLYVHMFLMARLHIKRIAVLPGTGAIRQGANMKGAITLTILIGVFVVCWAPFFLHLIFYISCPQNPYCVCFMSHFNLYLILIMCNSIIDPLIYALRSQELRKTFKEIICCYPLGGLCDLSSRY
Structure (SMILES),hMC4R PAM LANCE pEC50 Mean,hMC4R PAM LANCE Asym Max
COC(=O)c1[nH]c2ccc(Cl)cc2c1NC(=O)CN1CCC(c2ccccc2)CC1 [Example 4],6.5,–
COC(=O)c1[nH]c2ccc(Br)cc2c1NC(=O)CN1CCN(c2cccc(C)c2C)CC1 [Example 5],6.5,–
COC(=O)c1[nH]c2cc(Br)ccc2c1NC(=O)CN1CCN(c2ccc(F)cc2)CC1 [Example 6],6.4,–
CC1(C)CCCN(CC(=O)Nc2c(C(=O)C3CC3)[nH]c3ccc(Br)cc23)C1 [Example 7],6.4,–
O=C(CN1CCC(c2ccccc2)CC1)Nc1c(C(=O)C2CC2)[nH]c2ccc(Br)cc12 [Example 8],6.5,–
Cc1cccc(N2CCN(CC(=O)Nc3c(C(=O)C4CC4)[nH]c4ccc(Br)cc34)CC2)c1C [Example 9],6.4,–
Cc1cccc(N2CCN(CC(=O)Nc3c(C(=O)C4CC4)[nH]c4ccccc34)CC2)c1C [Example 10],6.5,–
COC(=O)c1[nH]c2ccccc2c1NC(=O)CN1CCC(c2ccccc2)CC1 [Example 11],6.5,–
COC(=O)c1[nH]c2ccccc2c1NC(=O)CN1CCN(c2cccc(C(F)(F)F)c2)CC1 [Example 12],6.3,–
COC(=O)c1[nH]c2ccc(Br)cc2c1NC(=O)CN1CCN(c2cccc(OC)c2)C(C)C1 (stereo not shown) [Example 13],6.3,–
O=C(CN1CCN(Cc2ccccc2)CC1)Nc1c(C(=O)C2CC2)[nH]c2ccc(Br)cc12 [Example 14],6.2,–
COC(=O)c1[nH]c2ccc(Cl)cc2c1NC(=O)CN1CCN(c2ccccc2)CC1 [Example 15],6.2,–
O=C(CN1CCC(c2ccccc2)CC1)Nc1c(C(=O)C2CC2)[nH]c2ccccc12 [Example 16],6.2,–
COC(=O)c1[nH]c2ccc(Br)cc2c1NC(=O)CN1CCN(c2ccccc2)CC1 [Example 17],6.2,–
CC(=O)c1[nH]c2ccccc2c1NC(=O)CN1CCC(Cc2ccccc2)CC1 [Example 18],6.1,–
CC(=O)c1[nH]c2ccccc2c1NC(=O)CN1CCC(c2ccccc2)CC1 [Example 19],6.2,–
COC(=O)c1[nH]c2ccc(Br)cc2c1NC(=O)C(C)N1CCC(Cc2ccccc2)CC1 (stereo not shown) [Example 20],6.2,–
COC(=O)c1[nH]c2ccc(Cl)cc2c1NC(=O)CN1CCC(Cc2ccccc2)CC1 [Example 21],6.2,–
COC(=O)c1[nH]c2ccc(Br)cc2c1NC(=O)CN1CCC(Cc2ccccc2)CC1 [Example 22],6.2,–
CC1(C)CCCN(CC(=O)Nc2c(C(=O)C3CC3)[nH]c3ccccc23)C1 [Example 23],6.1,–
COC(=O)c1[nH]c2ccccc2c1NC(=O)CN1CCC(Cc2ccccc2)CC1 [Example 24],6,–
COC(=O)c1[nH]c2ccccc2c1NC(=O)CN1CCC(Oc2ccccc2)CC1 [Example 25],6,–
COC(=O)c1[nH]c2ccc(Br)cc2c1NC(=O)CN1CCCCC1 [Example 26],6,–
COC(=O)c1[nH]c2ccc(C)cc2c1NC(=O)CN1CCN(c2cccc(C)c2C)CC1 [Example 27],5.9,–

Structure (SMILES),hMC4R PAM LANCE pEC50 Mean,hMC4R PAM LANCE Asym Max
CCOC(=O)c1[nH]c2ccncc2c1NC(=O)CN1CCCC(C)(C)C1 [Example 28],5.8,–
COC(=O)c1[nH]c2ccccc2c1NC(=O)CN1CCCC2(CCC2)C1 [Example 29],5.9,–
COC(=O)c1[nH]c2ccccc2c1NC(=O)C(C)N1CCC(Cc2ccccc2)CC1 (stereo not shown) [Example 30],5.9,–
COC(=O)c1[nH]c2ccc(C)cc2c1NC(=O)CN1CCN(c2cccc(OC)c2)C(C)C1 (stereo not shown) [Example 31],5.8,–
COC(=O)c1[nH]c2ccccc2c1NC(=O)CN1CCC(Oc2ccccn2)CC1 [Example 32],5.8,–
CC(=O)c1[nH]c2ccccc2c1NC(=O)CN1CCN(Cc2ccccc2)CC1 [Example 33],5.6,–
CCOC(=O)c1[nH]c2ncccc2c1NC(=O)CN1CCCC(C)(C)C1 [Example 34],5.7,–
COC(=O)c1[nH]c2ccc(Br)cc2c1NC(=O)CN1CCN(Cc2ccccc2)CC1 [Example 35],5.8,–
COC(=O)c1[nH]c2ccc(Br)cc2c1NC(=O)CN1CCSCC1 [Example 36],5.8,–
O=C(CN1CCC(C2CCCCC2)CC1)Nc1c(C(=O)C2CC2)[nH]c2ccccc12 [Example 37],6.6,–
O=C(CN1CCC(C2CCCCC2)CC1)Nc1c(C(=O)C2CC2)[nH]c2ccc(Cl)cc12 [Example 38],6.6,–
COC(=O)c1[nH]c2ccc(Br)cc2c1NC(=O)CN1CCC(c2ccccc2)CC1 [Example 39],6.6,–
CC(=O)c1[nH]c2ccccc2c1NC(=O)CN1CCC(C2CCCC2)CC1 [Example 40],6.5,–
O=C(CN1CCC(C2CCCC2)CC1)Nc1c(C(=O)C2CC2)[nH]c2ccccc12 [Example 41],6.4,–
CC(=O)c1[nH]c2ccccc2c1NC(=O)CN1CCC(C2CCCCC2)CC1 [Example 42],6.5,–
CC(=O)c1[nH]c2ccc(Br)cc2c1NC(=O)CN1CCC(c2ccccc2)CC1 [Example 43],6.4,–
CC(=O)c1[nH]c2ccc(Br)cc2c1NC(=O)CN1CCC(Cc2ccccc2)CC1 [Example 44],6.4,–
COC(=O)c1[nH]c2ccccc2c1NC(=O)CN1CCC(N(C)c2ccccc2)CC1 [Example 45],6.3,–
COC(=O)c1[nH]c2ccc(Br)cc2c1NC(=O)CN1CCN(C2c3ccccc3-c3ccccc32)CC1 [Example 46],6.3,48
COC(=O)c1[nH]c2ccc(Br)cc2c1NC(=O)CN1CCN(C(c2ccccc2)c2ccccc2)CC1 [Example 47],6.2,–
CC1(C)CCCN(CC(=O)Nc2c(C(=O)C3CC3)[nH]c3ccc(S(C)(=O)=O)cc23)C1 [Example 48],6.3,–
COC(=O)c1[nH]c2ccccc2c1NC(=O)CN1CCC(N2CCc3ccccc32)CC1 [Example 49],6.2,–
CC(C)=C1CCN(CC(=O)Nc2c(C(=O)C3CC3)[nH]c3ccccc23)CC1 [Example 50],6.1,–
CC(=O)c1[nH]c2ccc(Br)cc2c1NC(=O)CN1CCCC(C)(C)C1 [Example 51],6,–

Structure (SMILES),hMC4R PAM LANCE pEC50 Mean,hMC4R PAM LANCE Asym Max
CC(=O)c1[nH]c2ccccc2c1NC(=O)CN1CCC(Oc2ccccc2)CC1 [Example 52],5.9,–
CC1(C)CCCN(CC(=O)Nc2c(C(=O)C3CC3)[nH]c3ccc(N4CCOCC4)cc23)C1 [Example 53],5.7,–
O=C(CN1CCC(C2CC2)CC1)Nc1c(C(=O)C2CC2)[nH]c2ccccc12 [Example 54],6,–
COC(=O)c1[nH]c2ccccc2c1NC(=O)CN1CCC(Nc2ccccc2)CC1 [Example 55],5.8,–
O=C(CN1CCC(c2ccccc2)CC1)Nc1c(C(=O)C2CCC2)[nH]c2ccccc12 [Example 56],5.9,–
COC(=O)c1[nH]c2ccccc2c1NC(=O)CN1CCN(Cc2ccccc2)C(C)(C)C1 [Example 57],5.6,–
CS(=O)(=O)c1ccc2[nH]c(C(=O)C3CC3)c(NC(=O)CN3CCC(C4CCCCC4)CC3)c2c1 [Example 58],7.1,–
O=C(CN1CCC(C2CCCC2)CC1)Nc1c(C(=O)C2CC2)[nH]c2ccncc12 [Example 59],6.7,–
COC(=O)c1[nH]c2ccc(N3CCOCC3C)cc2c1NC(=O)CN1CCC(C2CCCCC2)CC1 (stereo not shown) [Example 60],6.7,–
COC(=O)c1[nH]c2ccc(N3CCOCC3)cc2c1NC(=O)CN1CCC(C2CCCCC2)CC1 [Example 61],6.6,–
O=C(CN1CCC(C2CCCCC2)CC1)Nc1c(C(=O)C2CC2)[nH]c2ccncc12 [Example 62],6.6,–
O=C(CN1CCC(C2CCCC2)CC1)Nc1c(C(=O)C2CC2)[nH]c2ccc(Cl)cc12 [Example 63],6.7,–
CC(=O)c1[nH]c2ccncc2c1NC(=O)CN1CCC(C2CCCC2)CC1 [Example 64],6.6,–
O=C(CN1CCC2(CCCCC2)CC1)Nc1c(C(=O)C2CC2)[nH]c2ccccc12 [Example 65],6.5,–
O=C(CN1CCC(C2CCCCC2)CC1)Nc1c(C(=O)C2CC2)[nH]c2ccc(N3CCOCC3)cc12 [Example 66],6.6,–
O=C(CN1CCC(c2ccccc2)CC1)Nc1c(C(=O)C2CC2)[nH]c2ccncc12 [Example 67],6.5,–
O=C(CN1CCC2(CCCC2)CC1)Nc1c(C(=O)C2CC2)[nH]c2ccncc12 [Example 68],6.4,–
O=C(CN1CCC(c2ccccc2)CC1)Nc1c(C(=O)C2CC2)[nH]c2ccc(N3CCOCC3)cc12 [Example 69],6.3,–
CC(=O)c1[nH]c2ccccc2c1NC(=O)C(C)N1CCC(C2CCCC2)CC1 (stereo not shown) [Example 70],6.4,–
CC(C(=O)Nc1c(C(=O)C2CC2)[nH]c2ccccc12)N1CCC(C2CCCC2)CC1 (stereo not shown) [Example 71],6.4,–
CC(=O)c1[nH]c2ccncc2c1NC(=O)CN1CCC(C(C)(C)C)CC1 [Example 72],6.3,–
O=C(CN1CCN(c2ccccc2)CC1)Nc1c(C(=O)C2CC2)[nH]c2ccncc12 [Example 73],6.2,–
CC1(C)CCCN(CC(=O)Nc2c(C(=O)C3CC3)[nH]c3ccncc23)C1 [Example 74],6.2,–
COC(=O)c1[nH]c2ccc(C)cc2c1NC(=O)CN1CCC(Cc2ccccc2)CC1 [Example 75],5.9,–
